Data published in patent US20110212218A1, “Method for modulating animal digestive tract microbiota and feed composition comprising bark extract” (UPM-KYMMENE CORPORATION, priority 2009, published 2011).
Like-named read-outs stand apart in the source and are kept apart here.

System: ileal microbial metabolism
Experiment: Broiler ileal simulation in vitro, SCFA production
Format: cell-based, broilers

Compound	total production of short chain fatty acids (SCFA) (ileal simulation, 12 hours (FIG. 6))	total production of short chain fatty acids (SCFA)
CC[C@@H](C(=O)O)[C@@H]1O[C@@H]([C@@H](C)[C@H](O)[C@H](C)C(=O)[C@H](CC)[C@H]2O[C@]3(C=C[C@@H](O)[C@]4(CC[C@@](C)([C@H]5CC[C@](O)(CC)[C@H](C)O5)O4)O3)[C@H](C)C[C@@H]2C)[C@@H](C)C[C@@H]1C [Narasin]	decreased	–
C=C(C)[C@@H]1CC[C@]2(CO)CC[C@]3(C)[C@H](CC[C@@H]4[C@@]5(C)CC[C@H](O)C(C)(C)[C@@H]5CC[C@]43C)[C@@H]12 [fraction C, betulinol]	–	increased
